Laboratory results as given in US7981903B2, “2-[2-{phenylamino}-1H-pyrrolo[2,3-D]pyrimidin-4-yl)amino] benzamide derivatives as IGF-1R inhibitors for the treatment of cancer” (GlaxoSmithKline LLC, priority 2007, dated 2011).

What was measured:
human IGF1R (hIGF1R) = biological target: T1, human IGF1R (hIGF1R) (Homo sapiens, UniProt P08069); test: TR-FRET kinase assay of purified hIGF1R; type: biochemical; conditions: activated hIGF1R 0.5 nM, 10 μM ATP, values given as pIC50 category, read-out: IGF-1R pIC50 (converted)
T1 construct: containing amino acid residues 957-1367 of human IGF1R; made in house; host or cells: Sf9 cells (baculovirus)

Colo205 = test: Inhibition of cell proliferation (CellTiter-Glo or InCell analyzer), Colo205; type: cell-based; conditions: Homo sapiens, COLO 205, 72 h / 3 days, values given as IC50 category
How it was run: In one

NCI-H929 = test: Inhibition of cell proliferation (CellTiter-Glo or InCell analyzer), NCI-H929; type: cell-based; conditions: Homo sapiens, 72 h / 3 days, values given as IC50 category
How it was run: In one

[1] = biological target: T2, NIH-3T3 cells overexpressing human IGF-1R (Homo sapiens, UniProt P08069); test: IGF-1R cellular autophosphorylation (DELFIA); type: cell-based
T2 construct: expressed in transfected cells; host or cells: NIH-3T3 (mouse fibroblasts)
How it was run: (§1)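 Receptor autophosphorylation measured by DELFIA, capturing IGF-1R or IRβ and detecting with europium anti-pTyr, reported as percent of IGF-1- or insulin-stimulated signal. Compounds (30 uM to 1.5 nM) added 2 h before ligand, then 15 min stimulation (IGF-1 30 ng/ml or insulin 3 ug/ml).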

[2] = biological target: T3, NIH-3T3 cells overexpressing human IR (Homo sapiens, UniProt P06213); test: IR cellular autophosphorylation (DELFIA); type: cell-based; conditions: 2 h compound, insulin 3 ug/ml for 15 minutes, IC50 category
T3 construct: expressed in transfected cells; host or cells: NIH-3T3 (mouse fibroblasts)
How it was run: as §1

T3 sequence (P06213 28-1382): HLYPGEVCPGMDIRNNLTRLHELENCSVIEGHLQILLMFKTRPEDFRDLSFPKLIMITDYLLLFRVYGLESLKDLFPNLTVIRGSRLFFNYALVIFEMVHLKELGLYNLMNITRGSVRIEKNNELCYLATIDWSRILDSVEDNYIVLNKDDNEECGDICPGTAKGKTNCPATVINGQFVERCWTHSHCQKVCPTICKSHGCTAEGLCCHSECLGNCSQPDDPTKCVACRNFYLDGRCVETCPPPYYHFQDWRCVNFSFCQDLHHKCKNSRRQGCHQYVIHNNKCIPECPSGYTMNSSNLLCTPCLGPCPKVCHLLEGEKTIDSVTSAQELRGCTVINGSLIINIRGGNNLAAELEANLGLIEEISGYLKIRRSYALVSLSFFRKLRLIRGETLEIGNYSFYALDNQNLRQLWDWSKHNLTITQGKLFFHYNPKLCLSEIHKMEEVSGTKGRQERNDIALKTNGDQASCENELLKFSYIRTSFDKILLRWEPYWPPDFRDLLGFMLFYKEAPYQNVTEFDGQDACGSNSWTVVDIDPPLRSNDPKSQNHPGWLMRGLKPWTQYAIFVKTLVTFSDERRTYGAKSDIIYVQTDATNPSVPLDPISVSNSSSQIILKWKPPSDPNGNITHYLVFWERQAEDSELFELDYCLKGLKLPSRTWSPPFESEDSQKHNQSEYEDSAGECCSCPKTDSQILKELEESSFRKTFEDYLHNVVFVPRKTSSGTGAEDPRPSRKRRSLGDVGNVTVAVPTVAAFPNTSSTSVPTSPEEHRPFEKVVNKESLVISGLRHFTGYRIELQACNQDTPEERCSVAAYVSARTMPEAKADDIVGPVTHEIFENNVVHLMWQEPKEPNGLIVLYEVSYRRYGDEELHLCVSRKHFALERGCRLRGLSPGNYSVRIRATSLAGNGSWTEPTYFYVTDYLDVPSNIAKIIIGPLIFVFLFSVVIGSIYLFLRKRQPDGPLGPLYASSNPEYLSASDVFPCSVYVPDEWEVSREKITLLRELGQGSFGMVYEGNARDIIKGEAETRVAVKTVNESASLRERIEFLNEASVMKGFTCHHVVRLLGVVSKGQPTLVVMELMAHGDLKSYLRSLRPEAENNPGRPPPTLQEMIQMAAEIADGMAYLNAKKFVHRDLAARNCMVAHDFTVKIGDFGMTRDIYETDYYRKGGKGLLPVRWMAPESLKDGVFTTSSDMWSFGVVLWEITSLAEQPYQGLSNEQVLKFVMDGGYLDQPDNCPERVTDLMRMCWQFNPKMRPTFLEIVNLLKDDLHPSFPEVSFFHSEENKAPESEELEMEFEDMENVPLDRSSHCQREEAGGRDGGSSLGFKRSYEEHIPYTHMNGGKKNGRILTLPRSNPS
T2 sequence (P08069 31-1367): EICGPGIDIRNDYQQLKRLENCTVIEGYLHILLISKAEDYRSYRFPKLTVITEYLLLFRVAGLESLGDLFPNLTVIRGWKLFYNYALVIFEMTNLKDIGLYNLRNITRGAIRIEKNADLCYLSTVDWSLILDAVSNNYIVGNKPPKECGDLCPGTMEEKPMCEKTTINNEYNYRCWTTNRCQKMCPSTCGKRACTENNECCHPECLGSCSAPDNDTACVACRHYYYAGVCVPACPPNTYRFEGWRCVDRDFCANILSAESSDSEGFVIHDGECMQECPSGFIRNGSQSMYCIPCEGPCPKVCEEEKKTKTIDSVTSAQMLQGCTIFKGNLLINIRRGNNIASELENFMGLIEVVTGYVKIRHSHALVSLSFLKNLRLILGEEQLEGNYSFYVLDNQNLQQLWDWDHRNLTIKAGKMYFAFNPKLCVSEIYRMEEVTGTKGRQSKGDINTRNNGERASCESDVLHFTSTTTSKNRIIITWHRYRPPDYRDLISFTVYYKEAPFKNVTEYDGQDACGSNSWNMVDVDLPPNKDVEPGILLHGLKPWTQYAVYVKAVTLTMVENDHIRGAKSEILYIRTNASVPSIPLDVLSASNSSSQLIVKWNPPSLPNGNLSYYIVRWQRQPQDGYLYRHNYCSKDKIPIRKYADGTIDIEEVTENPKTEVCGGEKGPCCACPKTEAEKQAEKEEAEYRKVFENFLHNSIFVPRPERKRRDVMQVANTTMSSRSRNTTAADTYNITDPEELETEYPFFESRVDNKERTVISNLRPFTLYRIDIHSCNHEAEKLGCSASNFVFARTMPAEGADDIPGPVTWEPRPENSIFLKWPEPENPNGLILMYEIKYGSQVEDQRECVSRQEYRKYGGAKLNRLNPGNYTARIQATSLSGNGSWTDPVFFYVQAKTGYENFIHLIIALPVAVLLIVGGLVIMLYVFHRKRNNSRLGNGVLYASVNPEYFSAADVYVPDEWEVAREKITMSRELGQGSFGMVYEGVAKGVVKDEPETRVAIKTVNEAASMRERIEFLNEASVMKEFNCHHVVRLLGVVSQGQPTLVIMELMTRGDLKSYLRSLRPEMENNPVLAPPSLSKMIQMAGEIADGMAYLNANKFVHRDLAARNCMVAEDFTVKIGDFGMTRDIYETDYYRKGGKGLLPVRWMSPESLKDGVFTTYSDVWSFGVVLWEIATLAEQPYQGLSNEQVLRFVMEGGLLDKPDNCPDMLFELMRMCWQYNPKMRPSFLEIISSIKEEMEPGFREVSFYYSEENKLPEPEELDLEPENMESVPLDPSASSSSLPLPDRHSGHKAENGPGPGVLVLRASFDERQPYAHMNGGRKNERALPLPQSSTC
T1 sequence (P08069 957-1367): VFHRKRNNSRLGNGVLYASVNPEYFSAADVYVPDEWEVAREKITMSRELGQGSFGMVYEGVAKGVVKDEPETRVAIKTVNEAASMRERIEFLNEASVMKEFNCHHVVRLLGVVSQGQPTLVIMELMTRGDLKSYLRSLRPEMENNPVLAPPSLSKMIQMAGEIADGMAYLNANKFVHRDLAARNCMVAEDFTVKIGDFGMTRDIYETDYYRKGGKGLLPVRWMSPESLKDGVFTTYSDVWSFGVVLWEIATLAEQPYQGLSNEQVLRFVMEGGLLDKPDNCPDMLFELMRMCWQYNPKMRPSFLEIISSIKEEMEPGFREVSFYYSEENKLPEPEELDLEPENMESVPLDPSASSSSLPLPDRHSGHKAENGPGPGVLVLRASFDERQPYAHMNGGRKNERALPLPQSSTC

| SMILES | IC50 (human IGF1R (hIGF1R)) [nM] | IC50 (Colo205) [nM] | IC50 (NCI-H929) [nM] | IC50 [1] [nM] | IC50 [2] [nM] |
| --- | --- | --- | --- | --- | --- |
| CCNC(=O)c1c(F)cccc1Nc1nc(Nc2cc3c(cc2OC)CCN3C(=O)CN(C)C)nc2[nH]ccc12 [Example 126, 2-[(2-{[1-(N,N-dimethylglycyl)-5-(methyloxy)-2,3-dihydro-1H-indol-6-yl]amino}-1H-pyrrolo[2,3-d]pyrimidin-4-yl)amino]-N-ethyl-6-fluorobenzamide] | 1.26 to 3.98 | 250 to 1000 | < 250 | 100 to 500 | 100 to 500 |
| CCN(CCO)CC(=O)N1CCc2cc(OC)c(Nc3nc(Nc4cccc(F)c4C(N)=O)c4cc[nH]c4n3)cc21 [Example 177, 2-[(2-{[1-[N-ethyl-N-(2-hydroxyethyl)glycyl]-5-(methyloxy)-2,3-dihydro-1H-indol-6-yl]amino}-1H-pyrrolo[2,3-d]pyrimidin-4-yl)amino]-6-fluorobenzamide] | 1.26 to 3.98 | > 1000 | 250 to 1000 | 100 to 500 | 100 to 500 |
| COc1cc(N2CCN(C(C)C)CC2)ccc1Nc1nc(Nc2cccc(F)c2C(N)=O)c2cc[nH]c2n1 [Example 46, 2-fluoro-6-[(2-{[4-[4-(1-methylethyl)-1-piperazinyl]-2-(methyloxy)phenyl]amino}-1H-pyrrolo[2,3-d]pyrimidin-4-yl)amino]benzamide] | 1.26 to 3.98 | < 250 | < 250 | 100 to 500 | 100 to 500 |
| COc1cc2c(cc1Nc1nc(Nc3cccc(F)c3C(N)=O)c3cc[nH]c3n1)N(C(=O)CN)CC2 [Example 141, 2-fluoro-6-[(2-{[1-glycyl-5-(methyloxy)-2,3-dihydro-1H-indol-6-yl]amino}-1H-pyrrolo[2,3-d]pyrimidin-4-yl)amino]benzamide] | 1.26 to 3.98 | 250 to 1000 | 250 to 1000 | > 500 | > 500 |
| COc1cc2c(cc1Nc1nc(Nc3cccc(F)c3C(=O)NC(C)C)c3cc[nH]c3n1)N(C(=O)CN(C)C)CC2 [Example 158, 2-[(2-{[1-(N,N-dimethylglycyl)-5-(methyloxy)-2,3-dihydro-1H-indol-6-yl]amino}-1H-pyrrolo[2,3-d]pyrimidin-4-yl)amino]-6-fluoro-N-(1-methylethyl)benzamide] | 1.26 to 3.98 | 250 to 1000 | 250 to 1000 | 100 to 500 | > 500 |
| CNCC(=O)N1CCc2cc(OC)c(Nc3nc(Nc4cccc(F)c4C(N)=O)c4cc[nH]c4n3)cc21 [Example 142, 2-fluoro-6-[(2-{[1-(N-methylglycyl)-5-(methyloxy)-2,3-dihydro-1H-indol-6-yl]amino}-1H-pyrrolo[2,3-d]pyrimidin-4-yl)amino]benzamide] | 1.26 to 3.98 | 250 to 1000 | 250 to 1000 | < 100 | 100 to 500 |
| COc1cc(N2CCN(C(C)C)CC2)c(F)cc1Nc1nc(Nc2cccc(F)c2C(N)=O)c2cc[nH]c2n1 [Example 48, 2-fluoro-6-[(2-{[5-fluoro-4-[4-(1-methylethyl)-1-piperazinyl]-2-(methyloxy)phenyl]amino}-1H-pyrrolo[2,3-d]pyrimidin-4-yl)amino]benzamide] | 1.26 to 3.98 | 250 to 1000 | < 250 | 100 to 500 | < 100 |
| COc1cc2c(cc1Nc1nc(Nc3cccc(F)c3C(N)=O)c3cc[nH]c3n1)CN(CCF)CC2 [Example 233, 2-fluoro-6-[(2-{[2-(2-fluoroethyl)-6-(methyloxy)-1,2,3,4-tetrahydro-7-isoquinolinyl]amino}-1H-pyrrolo[2,3-d]pyrimidin-4-yl)amino]benzamide] | 1.26 to 3.98 | 250 to 1000 | < 250 | 100 to 500 | < 100 |
| COc1cc2c(cc1Nc1nc(Nc3cccc(F)c3C(=O)NCC(C)C)c3cc[nH]c3n1)N(C(=O)CN(C)C)CC2 [Example 157, 2-[(2-{[1-(N,N-dimethylglycyl)-5-(methyloxy)-2,3-dihydro-1H-indol-6-yl]amino}-1H-pyrrolo[2,3-d]pyrimidin-4-yl)amino]-6-fluoro-N-(2-methylpropyl)benzamide] | 1.26 to 3.98 | > 1000 | 250 to 1000 | 100 to 500 | 100 to 500 |
| COc1cc(N2CCN(CC3CC3)CC2)ccc1Nc1nc(Nc2cc(F)ccc2C(N)=O)c2cc[nH]c2n1 [Example 81, 2-[(2-{[4-[4-(cyclopropylmethyl)-1-piperazinyl]-2-(methyloxy)phenyl]amino}-1H-pyrrolo[2,3-d]pyrimidin-4-yl)amino]-4-fluorobenzamide] | 1.26 to 3.98 | < 250 | < 250 | < 100 | 100 to 500 |
| COc1cc2c(cc1Nc1nc(Nc3cc(F)cc(F)c3C(N)=O)c3cc[nH]c3n1)CN(CCF)CC2 [Example 239, 2,4-difluoro-6-[(2-{[2-(2-fluoroethyl)-6-(methyloxy)-1,2,3,4-tetrahydro-7-isoquinolinyl]amino}-1H-pyrrolo[2,3-d]pyrimidin-4-yl)amino]benzamide] | 1.26 to 3.98 | > 1000 | 250 to 1000 | > 500 | > 500 |
| CNC(=O)c1c(F)cc(Cl)cc1Nc1nc(Nc2cc3c(cc2OC)CCCN3C(=O)CN2CCCC2)nc2[nH]ccc12 [Example 174, 4-chloro-2-fluoro-N-methyl-6-[(2-{[6-(methyloxy)-1-(1-pyrrolidinylacetyl)-1,2,3,4-tetrahydro-7-quinolinyl]amino}-1H-pyrrolo[2,3-d]pyrimidin-4-yl)amino]benzamide] | 1.26 to 3.98 | 250 to 1000 | 250 to 1000 | 100 to 500 | 100 to 500 |

Next, values leading:

| IC50 (human IGF1R (hIGF1R)) [nM] | IC50 (Colo205) [nM] | IC50 (NCI-H929) [nM] | IC50 [1] [nM] | IC50 [2] [nM] | SMILES |
| --- | --- | --- | --- | --- | --- |
| 1.26 to 3.98 | 250 to 1000 | < 250 | 100 to 500 | 100 to 500 | COc1cc2c(cc1Nc1nc(Nc3cccc(F)c3C(N)=O)c3cc[nH]c3n1)CN(C(=O)CN(C)C)CC2 [Example 123, 2-[(2-{[2-(N,N-dimethylglycyl)-6-(methyloxy)-1,2,3,4-tetrahydro-7-isoquinolinyl]amino}-1H-pyrrolo[2,3-d]pyrimidin-4-yl)amino]-6-fluorobenzamide] |
| 1.26 to 3.98 | 250 to 1000 | < 250 | 100 to 500 | 100 to 500 | COc1cc2c(cc1Nc1nc(Nc3cccc(F)c3C(N)=O)c3cc[nH]c3n1)CN(C(C)C)CC2 [Example 236, 2-fluoro-6-[(2-{[2-(1-methylethyl)-6-(methyloxy)-1,2,3,4-tetrahydro-7-isoquinolinyl]amino}-1H-pyrrolo[2,3-d]pyrimidin-4-yl)amino]benzamide] |
| 1.26 to 3.98 | < 250 | < 250 | 100 to 500 | > 500 | COc1cc2c(cc1Nc1nc(Nc3cccc(F)c3C(N)=O)c3cc[nH]c3n1)CCN2C(=O)CN(C)C [Example 197, 2-[(2-{[1-(N,N-dimethylglycyl)-6-(methyloxy)-2,3-dihydro-1H-indol-5-yl]amino}-1H-pyrrolo[2,3-d]pyrimidin-4-yl)amino]-6-fluorobenzamide] |
| 1.26 to 3.98 | 250 to 1000 | < 250 | < 100 | < 100 | CNC(=O)c1c(Nc2nc(Nc3cc4c(cc3OC)CCCN4C(=O)CN(C)C)nc3[nH]ccc23)ccc(F)c1F [Example 163, 6-[(2-{[1-(N,N-dimethylglycyl)-6-(methyloxy)-1,2,3,4-tetrahydro-7-quinolinyl]amino}-1H-pyrrolo[2,3-d]pyrimidin-4-yl)amino]-2,3-difluoro-N-methylbenzamide] |
| 1.26 to 3.98 | > 1000 | 250 to 1000 | 100 to 500 | 100 to 500 | CCCNC(=O)c1c(F)cccc1Nc1nc(Nc2cc3c(cc2OC)CCN3C(=O)CN(C)C)nc2[nH]ccc12 [Example 156, 2-[(2-{[1-(N,N-dimethylglycyl)-5-(methyloxy)-2,3-dihydro-1H-indol-6-yl]amino}-1H-pyrrolo[2,3-d]pyrimidin-4-yl)amino]-6-fluoro-N-propylbenzamide] |
| 1.26 to 3.98 | 250 to 1000 | < 250 | < 100 | < 100 | COc1cc2c(cc1Nc1nc(Nc3cccc(F)c3C(N)=O)c3cc[nH]c3n1)N(C(=O)CN1CCCC1)CC2 [Example 138, 2-fluoro-6-[(2-{[5-(methyloxy)-1-(1-pyrrolidinylacetyl)-2,3-dihydro-1H-indol-6-yl]amino}-1H-pyrrolo[2,3-d]pyrimidin-4-yl)amino]benzamide] |
| 1.26 to 3.98 | 250 to 1000 | < 250 | 100 to 500 | 100 to 500 | CCCN(C)CC(=O)N1CCc2cc(OC)c(Nc3nc(Nc4cccc(F)c4C(=O)NC)c4cc[nH]c4n3)cc21 [Example 167, 2-fluoro-N-methyl-6-[(2-{[5-(methyloxy)-1-(N-methyl-N-propylglycyl)-2,3-dihydro-1H-indol-6-yl]amino}-1H-pyrrolo[2,3-d]pyrimidin-4-yl)amino]benzamide] |
| 1.26 to 3.98 | 250 to 1000 | < 250 | 100 to 500 | 100 to 500 | CCCN1CCC(COc2ccc(Nc3nc(Nc4cccc(F)c4C(N)=O)c4cc[nH]c4n3)c(OC)c2)CC1 [Example 206, 2-fluoro-6-({2-[(2-(methyloxy)-4-{[(1-propyl-4-piperidinyl)methyl]oxy}phenyl)amino]-1H-pyrrolo[2,3-d]pyrimidin-4-yl}amino)benzamide] |
